Like-named read-outs stand apart in the source and are kept apart here.
System: MCF-7 cells
Test: In vitro test of cell activity (MCF-7 cells, insulin stimulation, ELISA-One fluorescence)
Type: cell-based
Conditions: Homo sapiens, MCF7, MCF-7 cells; for inhibition at 1 µM: conc. 1 μM; for inhibition at 0.5 µM: conc. 0.5 μM; for inhibition at 0.25 µM: conc. 0.25 μM
Experimental: Example In Vitro Tests of Cell Activities Experimental Steps and Methods:
1) MCF-7 cells were inoculated at the density of 2.5×10^4 cells/well into 96-well plates (the culture medium used should be a complete culture medium containing 10% FBS).
2) On the next day, the medium in each well was drawn out. A certain concentration (preliminary screening) or a series of concentration (IC50 test) of compounds were dissolved in a culture medium without serum and added to the 96-well plates to culture cells for 2 hours.
3) Insulin was dissolved in a culture medium without serum, added to the cultured cells and incubated for 30 minutes, wherein the final concentration of insulin was […].
4) A lysis solution was prepared according to the following method during the waiting period for the reaction:
a) Enhancer solution was removed from the refrigerator to melt in advance.
b) Enhancer solution was diluted 10 times with the 5× Lysis Buffer to give a concentrated lysis solution.
c) The concentrated lysis solution was diluted 5 times with double distilled water to give the lysis solution.
5) The medium in each well was completely removed and each well was quickly rinsed with PBS once.
6) 150 μl of the freshly prepared lysis solution was added to each well and shaked at room temperature for 10 minutes.
7) After confirming that all cells were detached, the lysis solution together with the cell fragments was transferred into a 1.5 ml tube.
8) The tube was shaked on vortes mixer to make the lysis solution and cells mix completely and then the mixture was centrifugated at 4° C. under 12000 g for 10 minutes.
9) The number of strips of ELISA-one micro-well plate that is required was calculated. The needless strips were removed from the frame, put back into the storage bag and sealed. Before the strips of micro-well plate were used, 200 μl of double distilled water was used to rinse each well to remove preservative.
10) 50 μl of antibody mixture was added to each well. (The antibody mixture solution was prepared by mixing the medium antibody reagent and the enzyme labeled antibody reagent with an equal proportion. The preparation of antibody mixture didn't need vortex.)
11) 25 μl of cell lysates was added to each well of ELISA-One micro-well plate. The micro-well plate was covered with adhesive sealing film and incubated on a micro-well plate oscillation instrument at room temperature for 1 hour.
12) Each well was rinsed with 150 μl of 1× rinsing buffer 3 times. After the last rinsing, the rinsing buffer in the well was completely removed. If necessary, the 1× rinsing buffer could be allowed to stay in the micro-well plate for up to 30 minutes so that the substrate mixed solution could be prepared during such time period.
13) The substrate mixed solution should be prepared just before each use, 10 μl of the substrate mixed solution was added to each well and the micro-well plate was sealed with tin-foil and incubated on the micro-well plate oscillation instrument at room temperature for 10 minutes.
14) 10 μl of stop solution was added to each well and mixed slightly (5-10 seconds) on the micro-well plate oscillation instrument.
15) The corresponding ELISA-One filter group was assembled and used to read the fluorescence signal intensity.

IC50 (read-out: IC50 p-AKT) [nM] | IC50 (read-out: IC50 p-p70S6K) [nM] | Structure (SMILES) | inhibition at 0.5 µM (read-out: % inhibition AKT) [%] | inhibition at 0.5 µM (read-out: % inhibition p70s6k) [%] | further results
 |  | Cc1ncc(-c2ccc3nccc(=O)n3c2)cc1NS(=O)(=O)c1ccc(F)cc1 [compound 8] |  |  | inhibition at 1 µM (read-out: % inhibition AKT): 84.6%; inhibition at 1 µM (read-out: % inhibition p70s6k): 60.5%
≤ 50 | 50 to 100 | COc1ncc(-c2ccc3nccc(=O)n3c2)cc1NS(=O)(=O)c1sccc1Cl [compound 34] | 97 | 95.6 | 
≤ 50 |  | COCCOc1cnc2ccc(-c3cnc(OC)c(NS(=O)(=O)c4sc(N)nc4C)c3)cn2c1=O [compound 183] |  |  | 
 |  | Cc1ncc(-c2ccc3nccc(=O)n3c2)cc1NS(=O)(=O)c1ccccc1F [compound 10] |  |  | inhibition at 1 µM (read-out: % inhibition AKT): 81.9%; inhibition at 1 µM (read-out: % inhibition p70s6k): 27.8%
≤ 50 |  | COc1ncc(-c2ccc3ncc(OCC4COC4)c(=O)n3c2)cc1NS(=O)(=O)c1ccc(F)cc1Cl [compound 214] |  |  | 
≤ 50 | 50 to 100 | COc1ncc(-c2ccc3ncc(Cl)c(=O)n3c2)cc1NS(=O)(=O)c1cccc(C)c1 [compound 140] | 94.8 | 90.5 | 
≤ 50 |  | COc1ncc(-c2ccc3ncc(Cl)c(=O)n3c2)cc1NS(=O)(=O)c1ccc(C)nc1C [compound 169] |  |  | 
50 to 100 |  | COc1ncc(-c2ccc3nc(N)cc(=O)n3c2)cc1NS(=O)(=O)c1sc(C)nc1C [compound 236, N-(5-(2-amino-4-oxo-4H-pyrido[1,2-a]pyrimidin-7-yl)-2-methoxypyridin-3-yl)-2,4-dimethylthiazolyl-5-sulfamide] |  |  | 
≤ 50 | 100 to 250 | COc1ncc(-c2ccc3ncc(N)c(=O)n3c2)cc1NS(=O)(=O)c1ccc(F)cc1Cl [compound 88] | 94.8 | 91 | 
50 to 100 | 50 to 100 | COc1ncc(-c2ccc3ncc(Cl)c(=O)n3c2)cc1NS(=O)(=O)c1c(F)cccc1F [compound 148] |  |  | inhibition at 0.25 µM (read-out: % inhibition AKT): 88.9%; inhibition at 0.25 µM (read-out: % inhibition p70s6k): 86.3%
≤ 50 |  | COCCOCCOc1cnc2ccc(-c3cnc(OC)c(NS(=O)(=O)c4sc(C)nc4C)c3)cn2c1=O [compound 191] |  |  | 
 |  | COc1ncc(-c2ccc3nccc(=O)n3c2C)cc1NS(=O)(=O)c1ccc(F)cc1F [compound 52, 2,4-difluoro-N-(2-methoxy-5-(6-methyl-4-oxo-4H-pyrido[1,2-a]pyrimidin-7-yl)pyridin-3-yl)benzsulfamide] | 69.3 | 50.3 | 
 |  | CCc1ncc(-c2ccc3nccc(=O)n3c2)cc1NS(=O)(=O)c1ccccc1F [compound 17] |  |  | inhibition at 1 µM (read-out: % inhibition AKT): 81.1%; inhibition at 1 µM (read-out: % inhibition p70s6k): 34.1%
≤ 50 |  | COc1ncc(-c2ccc3ncc(OCC4COC4)c(=O)n3c2)cc1NS(=O)(=O)c1ccccc1F [compound 256] |  |  | 
100 to 250 |  | COCCOc1cnc2ccc(-c3cnc(OC)c(NS(=O)(=O)c4cc(Cl)c(F)cc4F)c3)cn2c1=O [compound 273] |  |  | 
100 to 250 | 50 to 100 | COc1ncc(-c2ccc3ncc(Cl)c(=O)n3c2)cc1NS(=O)(=O)c1c(C)n[nH]c1C [compound 163] |  |  | inhibition at 0.25 µM (read-out: % inhibition AKT): 78.1%; inhibition at 0.25 µM (read-out: % inhibition p70s6k): 88.8%
 |  | COc1ncc(-c2ccc3ncc(Cl)c(=O)n3c2)cc1NS(=O)(=O)c1cnc(C)[nH]1 [compound 155] |  |  | inhibition at 0.25 µM (read-out: % inhibition AKT): 29.8%; inhibition at 0.25 µM (read-out: % inhibition p70s6k): 42.2%
> 250 |  | COCCOc1ncc(-c2ccc3ncc(Cl)c(=O)n3c2)cc1NS(=O)(=O)c1ccc(F)cc1F [compound 231, N-[5-(3-chloro-4-oxo-4H-pyrido[1,2-a]pyrimidin-7-yl)-2-(2-methoxy-ethoxy)-pyridin-3-yl]-2,4-difluorobenzsulfamide] |  |  | 
≤ 50 | ≤ 50 | COc1ncc(-c2ccc3ncc(Cl)c(=O)n3c2)cc1NS(=O)(=O)c1sccc1C [compound 143] | 95.7 | 87.7 | 
50 to 100 | 100 to 250 | CCOc1cnc2ccc(-c3cnc(OC)c(NS(=O)(=O)c4ccc(F)cc4F)c3)cn2c1=O [compound 171, N-(5-(3-ethoxy-4-oxo-4H-pyrido[1,2-a]pyrimidin-7-yl)-2-methoxypyridin-3-yl)-2,4-difluorobenzsulfamide] |  |  | inhibition at 0.25 µM (read-out: % inhibition AKT): 76.3%; inhibition at 0.25 µM (read-out: % inhibition p70s6k): 73.4%
≤ 50 | ≤ 50 | COCCOc1cnc2ccc(-c3cnc(OC)c(NS(=O)(=O)c4sc(C)nc4C)c3)cn2c1=O [compound 176] |  |  | 

IC50 (read-out: IC50 p-AKT) [nM] | IC50 (read-out: IC50 p-p70S6K) [nM] | Structure (SMILES) | inhibition at 0.5 µM (read-out: % inhibition AKT) [%] | inhibition at 0.5 µM (read-out: % inhibition p70s6k) [%] | further results
≤ 50 | ≤ 50 | COc1ncc(-c2ccc3ncc(F)c(=O)n3c2)cc1NS(=O)(=O)c1ccc(F)cc1C [compound 66] | 89 | 91.3 | 
 |  | COc1ncc(-c2cn3c(=O)ccnc3cc2C)cc1NS(=O)(=O)c1ccc(C(F)(F)F)cc1 [compound 130] | 2.3 | 2.6 | 
≤ 50 | 50 to 100 | COc1ncc(-c2ccc3ncc(Cl)c(=O)n3c2)cc1NS(=O)(=O)c1ccccc1 [compound 142] | 94.8 | 90.8 | 
≤ 50 |  | COc1ncc(-c2ccc3ncc(OCC4CCOCC4)c(=O)n3c2)cc1NS(=O)(=O)c1sc(C)nc1C [compound 198] |  |  | 
≤ 50 |  | COc1ncc(-c2ccc3ncc(OCCOCC(F)(F)F)c(=O)n3c2)cc1NS(=O)(=O)c1sc(C)nc1C [compound 202] |  |  | 
 |  | COc1ncc(-c2cn3c(=O)ccnc3cc2C)cc1NS(=O)(=O)c1ccccc1Cl [compound 122] | -26.6 | 1.2 | 
 |  | COc1ncc(-c2ccc3ncc(Cl)c(=O)n3c2)cc1NS(=O)(=O)c1nnc(C)s1 [compound 158] |  |  | inhibition at 0.25 µM (read-out: % inhibition AKT): -21.8%; inhibition at 0.25 µM (read-out: % inhibition p70s6k): 5.1%
 |  | COc1ncc(-c2ccc3ncc(Cl)c(=O)n3c2)cc1NS(=O)(=O)c1cnc(Cl)s1 [compound 160] |  |  | inhibition at 0.25 µM (read-out: % inhibition AKT): 61.9%; inhibition at 0.25 µM (read-out: % inhibition p70s6k): 71.6%
> 250 |  | COCCOc1cnc2ccc(-c3cnc(OC)c(NS(=O)(=O)c4sccc4C)c3)cn2c1=O [compound 182] |  |  | 
≤ 50 | 50 to 100 | COc1ncc(-c2ccc3ncc(Cl)c(=O)n3c2)cc1NS(=O)(=O)c1cc(F)ccc1F [compound 139] | 93.7 | 88.5 | 
 |  | COc1ncc(-c2ccc3nc(C)cc(=O)n3c2)cc1NS(=O)(=O)c1ccc(F)cc1Cl [compound 222] |  |  | inhibition at 0.25 µM (read-out: % inhibition AKT): -26.7%; inhibition at 0.25 µM (read-out: % inhibition p70s6k): 2%
 |  | COc1ncc(-c2ccc3nccc(=O)n3c2C)cc1NS(=O)(=O)c1ccc(F)cc1Cl [compound 56] | 80.2 | 53.3 | 
≤ 50 | 100 to 250 | COc1ncc(-c2ccc3nccc(=O)n3c2)cc1NS(=O)(=O)c1sccc1C [compound 37] | 95.8 | 90.3 | 
≤ 50 | ≤ 50 | COc1ncc(-c2ccc3ncc(Cl)c(=O)n3c2)cc1NS(=O)(=O)c1ccc(C)cc1Cl [compound 152] |  |  | inhibition at 0.25 µM (read-out: % inhibition AKT): 94%; inhibition at 0.25 µM (read-out: % inhibition p70s6k): 83.9%
 |  | COc1ncc(-c2cn3c(=O)ccnc3cc2C)cc1NS(=O)(=O)c1cccc(F)c1 [compound 124] | -48 | 2.8 | 
> 250 |  | COc1ncc(-c2ccc3ncc(NC(C)=O)c(=O)n3c2)cc1NS(=O)(=O)c1ccc(F)cc1F [compound 97] |  |  | 
≤ 50 |  | COCCOc1cnc2ccc(-c3cnc(OC)c(NS(=O)(=O)c4sc(Cl)cc4C)c3)cn2c1=O [compound 196] |  |  | 
≤ 50 | 100 to 250 | COc1ncc(-c2ccc3nccc(=O)n3c2)cc1NS(=O)(=O)c1ccc(C(F)(F)F)cc1 [compound 22] |  |  | inhibition at 1 µM (read-out: % inhibition AKT): 94.5%; inhibition at 1 µM (read-out: % inhibition p70s6k): 94%
 |  | COc1ncc(-c2cn3c(=O)ccnc3cc2F)cc1NS(=O)(=O)c1cc(F)ccc1F [compound 116] | 52.3 | 6.7 | 
≤ 50 |  | COc1ncc(-c2ccc3ncc(N)c(=O)n3c2)cc1NS(=O)(=O)c1sc(C)nc1C [compound 93] |  |  | 
> 250 |  | COCCOc1cnc2ccc(-c3cnc(OC)c(NS(=O)(=O)C4CCCCC4)c3)cn2c1=O [compound 212] |  |  | 
